According to ChEMBL document CHEMBL4725367, “Novel anticancer Hsp90 inhibitor disubstituted pyrazolyl 2-aminopyrimidine compound 7t induces cell cycle arrest and apoptosis via mitochondrial pathway in MCF-7 cells” (Bioorg Med Chem Lett, 2020):

How the values were obtained:
[1] = biological target: T1, Heat shock protein HSP90 (Homo sapiens) (UniProt P07900+P08238); test: Inhibition of HSP90 in human MCF7 cells assessed as cell cycle arrest by measuring accumulation at Sub-G1 phase at 2.5 uM measured after 24 hrs by RNaseA/propidium iodide staining based flow cytometric analysis (reference value: 3.75 %); design: scale not given: the % may be the effect or the level left
[2] = biological target: T1, Heat shock protein HSP90 (Homo sapiens); test: Inhibition of HSP90 in human MCF7 cells assessed as cell cycle arrest by measuring accumulation at G0/G1 phase at 2.5 uM measured after 24 hrs by RNaseA/propidium iodide staining based flow cytometric analysis (reference value: 39.10 %); design: scale not given: the % may be the effect or the level left
[3] = biological target: T1, Heat shock protein HSP90 (Homo sapiens); test: Inhibition of HSP90 in human MCF7 cells assessed as cell cycle arrest by measuring accumulation at S phase at 2.5 uM measured after 24 hrs by RNaseA/propidium iodide staining based flow cytometric analysis (reference value: 7.08 %); design: scale not given: the % may be the effect or the level left
[4] = biological target: T1, Heat shock protein HSP90 (Homo sapiens); test: Inhibition of HSP90 in human MCF7 cells assessed as cell cycle arrest by measuring accumulation at G2/M phase at 2.5 uM measured after 24 hrs by RNaseA/propidium iodide staining based flow cytometric analysis (reference value: 25.08 %); design: scale not given: the % may be the effect or the level left
[5] = biological target: T1, Heat shock protein HSP90 (Homo sapiens); test: Inhibition of HSP90 in human MCF7 cells assessed as cell cycle arrest by measuring accumulation at G0/G1 phase at 5 uM measured after 24 hrs by RNaseA/propidium iodide staining based flow cytometric analysis (reference value: 39.10 %); design: scale not given: the % may be the effect or the level left
[6] = biological target: T1, Heat shock protein HSP90 (Homo sapiens); test: Inhibition of HSP90 in human MCF7 cells assessed as cell cycle arrest by measuring accumulation at S phase at 5 uM measured after 24 hrs by RNaseA/propidium iodide staining based flow cytometric analysis (reference value: 7.08 %); design: scale not given: the % may be the effect or the level left
[7] = biological target: T1, Heat shock protein HSP90 (Homo sapiens); test: Inhibition of HSP90 in human MCF7 cells assessed as cell cycle arrest by measuring accumulation at G2/M phase at 5 uM measured after 24 hrs by RNaseA/propidium iodide staining based flow cytometric analysis (reference value: 25.08 %); design: scale not given: the % may be the effect or the level left
[8] = biological target: T1, Heat shock protein HSP90 (Homo sapiens); test: Inhibition of HSP90 in human MCF7 cells assessed as cell cycle arrest by measuring accumulation at Sub-G1 phase at 10 uM measured after 24 hrs by RNaseA/propidium iodide staining based flow cytometric analysis (reference value: 3.75 %); design: scale not given: the % may be the effect or the level left
[9] = biological target: T1, Heat shock protein HSP90 (Homo sapiens); test: Inhibition of HSP90 in human MCF7 cells assessed as cell cycle arrest by measuring accumulation at G0/G1 phase at 10 uM measured after 24 hrs by RNaseA/propidium iodide staining based flow cytometric analysis (reference value: 39.10 %); design: scale not given: the % may be the effect or the level left
[10] = biological target: T1, Heat shock protein HSP90 (Homo sapiens); test: Inhibition of HSP90 in human MCF7 cells assessed as cell cycle arrest by measuring accumulation at S phase at 10 uM measured after 24 hrs by RNaseA/propidium iodide staining based flow cytometric analysis (reference value: 7.08 %); design: scale not given: the % may be the effect or the level left
[11] = biological target: T1, Heat shock protein HSP90 (Homo sapiens); test: Inhibition of HSP90 in human MCF7 cells assessed as induction of apoptosis by measuring live cells at 2.5 uM measured after 24 hrs by annexinV-FITC/propidium iodide staining based flow cytometry (reference value: 90.77 %); format: cell-based; design: scale not given: the % may be the effect or the level left
[12] = biological target: T1, Heat shock protein HSP90 (Homo sapiens); test: Inhibition of HSP90 in human MCF7 cells assessed as induction of apoptosis by measuring early apototic cells at 2.5 uM measured after 24 hrs by annexinV-FITC/propidium iodide staining based flow cytometry (reference value: 1.31 %); format: cell-based; design: scale not given: the % may be the effect or the level left
[13] = biological target: T1, Heat shock protein HSP90 (Homo sapiens); test: Inhibition of HSP90 in human MCF7 cells assessed as induction of apoptosis by measuring early apototic cells at 5 uM measured after 24 hrs by annexinV-FITC/propidium iodide staining based flow cytometry (reference value: 1.31 %); format: cell-based; design: scale not given: the % may be the effect or the level left
[14] = biological target: T1, Heat shock protein HSP90 (Homo sapiens); test: Inhibition of HSP90 in human MCF7 cells assessed as induction of apoptosis by measuring necrotic cells at 5 uM measured after 24 hrs by annexinV-FITC/propidium iodide staining based flow cytometry (reference value: 0.01 %); format: cell-based; design: scale not given: the % may be the effect or the level left
[15] = biological target: T1, Heat shock protein HSP90 (Homo sapiens); test: Inhibition of HSP90 in human MCF7 cells assessed as induction of apoptosis by measuring late apototic cells at 10 uM measured after 24 hrs by annexinV-FITC/propidium iodide staining based flow cytometry (reference value: 7.91 %); format: cell-based; design: scale not given: the % may be the effect or the level left
[16] = biological target: T1, Heat shock protein HSP90 (Homo sapiens); test: Inhibition of HSP90 in human MCF7 cells assessed as induction of apoptosis by measuring necrotic cells at 10 uM measured after 24 hrs by annexinV-FITC/propidium iodide staining based flow cytometry (reference value: 0.01 %); format: cell-based; design: scale not given: the % may be the effect or the level left
[17] = biological target: T1, Heat shock protein HSP90 (Homo sapiens); test: Inhibition of HSP90 in human MCF7 cells assessed as induction of apoptosis by measuring total apoptotic and dead cell population at 0.5 uM measured after 24 hrs by annexinV-FITC/propidium iodide staining based flow cytometry (reference value: 9.23 %); design: scale not given: the % may be the effect or the level left
[18] = biological target: T1, Heat shock protein HSP90 (Homo sapiens); test: Inhibition of HSP90 in human MCF7 cells assessed as induction of apoptosis by measuring total apoptotic and dead cell population at 4 uM measured after 24 hrs by annexinV-FITC/propidium iodide staining based flow cytometry (reference value: 9.23 %); design: scale not given: the % may be the effect or the level left
[19] = biological target: T1, Heat shock protein HSP90 (Homo sapiens); test: Inhibition of HSP90 in human MCF7 cells assessed as induction of apoptosis by measuring total apoptotic and dead cell population at 0.5 to 4 uM measured after 24 hrs by annexinV-FITC/propidium iodide staining based flow cytometry; details: dose microM 0.5-4, time 24.0 hrs
[20] = biological target: T1, Heat shock protein HSP90 (Homo sapiens); test: Inhibition of HSP90 in human MCF7 cells assessed as induction of morphological changes by measuring chromatin condensation and fragmentation in nucleus at 2.5 to 10 uM by acridine orange/ethidium bromide staining based fluorescence microscopy analysis; format: cell-based; details: dose microM 2.5-10
[21] = biological target: T1, Heat shock protein HSP90 (Homo sapiens); test: Inhibition of HSP90 in human MCF7 cells assessed as induction of morphological changes by measuring apoptotic body formation at 2.5 to 10 uM by acridine orange/ethidium bromide staining based fluorescence microscopy analysis; format: cell-based; details: dose microM 2.5-10
[22] = biological target: T1, Heat shock protein HSP90 (Homo sapiens); test: Inhibition of HSP90 in human MCF7 cells assessed as induction of mitochondrial membrane potential loss by measuring cell population with intact mitochondrial membrane potential at 2.5 uM after 24 hrs by JC1 staining-based flow cytometry analysis (reference value: 92.39 %); design: scale not given: the % may be the effect or the level left
[23] = biological target: T1, Heat shock protein HSP90 (Homo sapiens); test: Inhibition of HSP90 in human MCF7 cells assessed as induction of mitochondrial membrane potential loss by measuring cell population with intact mitochondrial membrane potential at 5 uM after 24 hrs by JC1 staining-based flow cytometry analysis (reference value: 92.39 %); design: scale not given: the % may be the effect or the level left
[24] = biological target: T1, Heat shock protein HSP90 (Homo sapiens); test: Inhibition of HSP90 in human MCF7 cells assessed as induction of mitochondrial membrane potential loss by measuring cell population with intact mitochondrial membrane potential at 10 uM after 24 hrs by JC1 staining-based flow cytometry analysis (reference value: 92.39 %); design: scale not given: the % may be the effect or the level left
[25] = biological target: T1, Heat shock protein HSP90 (Homo sapiens); test: Inhibition of HSP90 in human MCF7 cells assessed as induction of mitochondrial membrane potential loss by measuring cell population with mitochondrial membrane potential collapse at 10 uM after 24 hrs by JC1 staining-based flow cytometry analysis (reference value: 6.53 %); design: scale not given: the % may be the effect or the level left
[26] = biological target: T1, Heat shock protein HSP90 (Homo sapiens); test: Inhibition of HSP90 in human MCF7 cells assessed as induction of mitochondrial membrane potential loss by measuring cell population with mitochondrial membrane potential collapse at 2.5 to 10 microM after 24 hrs by JC1 staining-based flow cytometry analysis; details: dose microM 2.5-10, time 24.0 hrs
[27] = biological target: T1, Heat shock protein HSP90 (Homo sapiens); test: Inhibition of HSP90 in human MCF7 cells assessed as increase in ROS generation by measuring fluorescence intensity at 2.5 to 10 uM after 24 hrs by DCFDA staining based flow cytometry; format: cell-based; details: dose microM 2.5-10, time 24.0 hrs

SMILES: Nc1nc(-c2ccc(Br)cc2)cc(-c2cn(-c3ccc(Cl)cc3)nc2-c2ccc([N+](=O)[O-])cc2)n1
- Activity [1]: 6.27%
- Activity [2]: 35.2%
- Activity [3]: 7.74%
- Activity [4]: 27.2%
- Activity [5]: 28%
- Activity [6]: 5.15%
- Activity [7]: 23%
- Activity [8]: 23.7%
- Activity [9]: 25.2%
- Activity [10]: 4.13%
- Activity [11]: 87.9%
- Activity [12]: 1.94%
- Activity [13]: 3.8%
- Activity [14]: 0.17%
- Activity [15]: 30.5%
- Activity [16]: 0.12%
- Activity [17]: 12.1%
- Activity [18]: 34.7%
- inhibition [19]: Dose-dependent effect
- inhibition [20]: Dose-dependent effect
- inhibition [21]: Dose-dependent effect
- Activity [22]: 85.4%
- Activity [23]: 75.3%
- Activity [24]: 46%
- Activity [25]: 53%
- inhibition [26]: Dose-dependent effect
- inhibition [27]: Dose-dependent effect
